From patent publication US20230151049A1, “Compounds Useful in HIV Therapy” (priority 2020, published 2023)
Values joined by “and” are separate entries in the source; they are usually repeats but may differ in a detail not shown here. Equal entries are not always repeated. Where two headings read alike, the source gives them in different places.

Test: EFdA Rat PK Studies (subcutaneous and intramuscular groups), plasma concentration by LC-MS/MS
Type: in vivo, Wistar Han rats
Conditions: for Assayed Concentrations of EFdA, individual rats / Assayed Concentrations of EFdA, Mean / concentration at 0.5 h / concentration at 1 h / concentration at 4 h / concentration at 7 h / concentration at 24 h / concentration at 48 h / concentration at 72 h / concentration at 6 day / concentration at 25 day: plasma; for concentration at 0.5 h / concentration at 1 h / concentration at 4 h / concentration at 7 h / concentration at 24 h / concentration at 48 h / concentration at 72 h / concentration at 6 day / concentration at 25 day: male, Wistar Han, rat
From the text: Protocol for EFdA Rat PK Studies Conducted at Charles River Laboratories, NY.
A total of seven naïve male Wistar Han rats, 200-250 g, were received from Charles River Laboratories, Kingston, N.Y. All animals were received from the supplier equipped with a surgically-implanted jugular vein catheter (JVC) for blood sample collection. Following an acclimation period, the animals were assigned to the study based on acceptable health as determined by a staff veterinarian and catheter patency. Animals were placed into two groups of 3 rats per group. Fasting of the animals before or after dosing was not required.
On Day 1 each animal in Group 1 received a single subcutaneous injection of prepared test article at a target dose level of 20 mg/kg and at a dose volume of 0.33 mL/kg. Each animal in Group 2 received a single intramuscular injection of prepared test article into a thigh muscle at a target dose level of 20 mg/kg and at a dose volume of 0.33 mL/kg. The injection sites were shaved prior to dosing and identified with an indelible marker for daily monitoring during the study. The animals were manually restrained for dosing and were not sedated. The dose suspension was mixed well by inversion before each dose to ensure homogeneity. All dosing was performed as detailed in the study protocol and was completed without incident. […] In addition, all animals are monitored twice daily by the veterinary staff for clinical abnormalities.
Blood samples were collected from the study animals as detailed in the sample collection Table 2 below.
Each blood sample for PK (250 μL) was collected from the jugular vein catheter or by venipuncture of a jugular vein. The blood was transferred to a tube containing NaF/Na2EDTA anticoagulant and inverted several times to mix. The blood samples were maintained on crushed ice before centrifugation at 2200×g for 10 minutes at 5° C. to isolate plasma. The resulting plasma samples were transferred to individual polypropylene tubes in a 96-well plate format and immediately placed on dry ice until storage at nominally −80° C. prior to analysis.
The PK plasma samples were analyzed by the Testing Facility to determine the concentration of EFdA using an LC-MS/MS Research Grade Assay (RGA-1) with sensitivity to 0.1 ng/mL. Following review of sample analysis data through Day 29, further sample analysis was discontinued and the study was terminated. The individual and mean plasma concentration-time data are presented in Tables 3 and 4 and mean concentration-time profiles are shown in FIGS. 1 and 2.

C#C[C@]1(CO)O[C@@H](n2cnc3c(N)nc(F)nc32)C[C@@H]1O [EFdA, (2R,3S,5R)-5-(6-amino-2-fluoro-9H-purin-9-yl)-2-ethynyl-2-(hydroxymethyl)tetrahydrofuran-3-ol]
Assayed Concentrations of EFdA, individual rats (0.5 hr, IM 20 mg/kg): 1150 ng/mL and 684 ng/mL
Assayed Concentrations of EFdA, individual rats (0.5 hr, SC 20 mg/kg, 20 mg/kg): 1000 ng/mL and 640 ng/mL and 2210 ng/mL
Assayed Concentrations of EFdA, individual rats (1 hr, IM 20 mg/kg): 1640 ng/mL and 1400 ng/mL
Assayed Concentrations of EFdA, individual rats (1 hr, SC 20 mg/kg, 20 mg/kg): 1160 ng/mL and 1040 ng/mL and 3030 ng/mL
Assayed Concentrations of EFdA, individual rats (4 hr, IM 20 mg/kg): 436 ng/mL and 733 ng/mL
Assayed Concentrations of EFdA, individual rats (4 hr, SC 20 mg/kg, 20 mg/kg): 676 ng/mL and 708 ng/mL
Assayed Concentrations of EFdA, individual rats (7 hr, IM 20 mg/kg): 241 ng/mL and 191 ng/mL and 426 ng/mL
Assayed Concentrations of EFdA, individual rats (7 hr, SC 20 mg/kg, 20 mg/kg): 372 ng/mL and 216 ng/mL
Assayed Concentrations of EFdA, individual rats (24 hr, IM 20 mg/kg): 24.7 ng/mL and 1.96 ng/mL and 32.6 ng/mL
Assayed Concentrations of EFdA, individual rats (24 hr, SC 20 mg/kg, 20 mg/kg): 6.70 ng/mL and 14.7 ng/mL and 2.53 ng/mL
Assayed Concentrations of EFdA, individual rats (48 hr, IM 20 mg/kg): 5.25 ng/mL and 0.369 ng/mL and 0.915 ng/mL
Assayed Concentrations of EFdA, individual rats (48 hr, SC 20 mg/kg, 20 mg/kg): 0.713 ng/mL and 0.543 ng/mL
Assayed Concentrations of EFdA, individual rats (72 hr, IM 20 mg/kg): 0.316 ng/mL and 0.241 ng/mL
Assayed Concentrations of EFdA, individual rats (72 hr, SC 20 mg/kg, 20 mg/kg): 0.270 ng/mL and 0.201 ng/mL
Assayed Concentrations of EFdA, individual rats (Day 6, IM 20 mg/kg): BQL (BQL—Below Quantitation Limit, <0.100 ng/mL) and 0.103 ng/mL
Assayed Concentrations of EFdA, individual rats (Day 6, SC 20 mg/kg, 20 mg/kg): BQL (BQL—Below Quantitation Limit, <0.100 ng/mL)
Assayed Concentrations of EFdA, Mean (Day 8, IM 20 mg/kg): BQL (BQL—Below Quantitation Limit, <0.100 ng/mL)
Assayed Concentrations of EFdA, individual rats (Day 8, IM 20 mg/kg): BQL (BQL—Below Quantitation Limit, <0.100 ng/mL)
Assayed Concentrations of EFdA, Mean (Day 8, SC 20 mg/kg): BQL (BQL—Below Quantitation Limit, <0.100 ng/mL)
Assayed Concentrations of EFdA, individual rats (Day 8, SC 20 mg/kg): BQL (BQL—Below Quantitation Limit, <0.100 ng/mL)
Assayed Concentrations of EFdA, Mean (Day 11, IM 20 mg/kg): BQL (BQL—Below Quantitation Limit, <0.100 ng/mL)
Assayed Concentrations of EFdA, individual rats (Day 11, IM 20 mg/kg): BQL (BQL—Below Quantitation Limit, <0.100 ng/mL)
Assayed Concentrations of EFdA, Mean (Day 11, SC 20 mg/kg): BQL (BQL—Below Quantitation Limit, <0.100 ng/mL)
Assayed Concentrations of EFdA, individual rats (Day 11, SC 20 mg/kg): BQL (BQL—Below Quantitation Limit, <0.100 ng/mL)
Assayed Concentrations of EFdA, Mean (Day 15, IM 20 mg/kg): BQL (BQL—Below Quantitation Limit, <0.100 ng/mL)
Assayed Concentrations of EFdA, individual rats (Day 15, IM 20 mg/kg): BQL (BQL—Below Quantitation Limit, <0.100 ng/mL)
Assayed Concentrations of EFdA, Mean (Day 15, SC 20 mg/kg): BQL (BQL—Below Quantitation Limit, <0.100 ng/mL)
Assayed Concentrations of EFdA, individual rats (Day 15, SC 20 mg/kg): BQL (BQL—Below Quantitation Limit, <0.100 ng/mL)
Assayed Concentrations of EFdA, Mean (Day 22, IM 20 mg/kg): BQL (BQL—Below Quantitation Limit, <0.100 ng/mL)
Assayed Concentrations of EFdA, individual rats (Day 22, IM 20 mg/kg): BQL (BQL—Below Quantitation Limit, <0.100 ng/mL)
Assayed Concentrations of EFdA, Mean (Day 22, SC 20 mg/kg): BQL (BQL—Below Quantitation Limit, <0.100 ng/mL)
Assayed Concentrations of EFdA, individual rats (Day 22, SC 20 mg/kg): BQL (BQL—Below Quantitation Limit, <0.100 ng/mL)
Assayed Concentrations of EFdA, Mean (Day 25, IM 20 mg/kg): BQL (BQL—Below Quantitation Limit, <0.100 ng/mL)
Assayed Concentrations of EFdA, individual rats (Day 25, IM 20 mg/kg): BQL (BQL—Below Quantitation Limit, <0.100 ng/mL)
Assayed Concentrations of EFdA, individual rats (Day 25, SC 20 mg/kg, 20 mg/kg): BQL (BQL—Below Quantitation Limit, <0.100 ng/mL)
Assayed Concentrations of EFdA, Mean (Day 29, IM 20 mg/kg): BQL (BQL—Below Quantitation Limit, <0.100 ng/mL)
Assayed Concentrations of EFdA, individual rats (Day 29, IM 20 mg/kg): BQL (BQL—Below Quantitation Limit, <0.100 ng/mL)
Assayed Concentrations of EFdA, Mean (Day 29, SC 20 mg/kg): BQL (BQL—Below Quantitation Limit, <0.100 ng/mL)
Assayed Concentrations of EFdA, individual rats (Day 29, SC 20 mg/kg): BQL (BQL—Below Quantitation Limit, <0.100 ng/mL)
concentration at 0.5 h (intramuscular, 20 mg/kg, 0.5 hr, IM 20 mg/kg, read-out: Assayed Concentrations of EFdA, Mean): 921 ng/mL
concentration at 0.5 h (intramuscular, 20 mg/kg, 0.5 hr, IM 20 mg/kg, read-out: Assayed Concentrations of EFdA, individual rats): 929 ng/mL
concentration at 1 h (intramuscular, 20 mg/kg, 1 hr, IM 20 mg/kg, read-out: Assayed Concentrations of EFdA, Mean): 1330 ng/mL
concentration at 1 h (intramuscular, 20 mg/kg, 1 hr, IM 20 mg/kg, read-out: Assayed Concentrations of EFdA, individual rats): 957 ng/mL
concentration at 4 h (intramuscular, 20 mg/kg, 4 hr, IM 20 mg/kg, read-out: Assayed Concentrations of EFdA, Mean): 610 ng/mL
concentration at 4 h (intramuscular, 20 mg/kg, 4 hr, IM 20 mg/kg, read-out: Assayed Concentrations of EFdA, individual rats): 662 ng/mL
concentration at 7 h (intramuscular, 20 mg/kg, 7 hr, IM 20 mg/kg, read-out: Assayed Concentrations of EFdA, Mean): 286 ng/mL
concentration at 24 h (intramuscular, 20 mg/kg, 24 hr, IM 20 mg/kg, read-out: Assayed Concentrations of EFdA, Mean): 19.8 ng/mL
concentration at 48 h (intramuscular, 20 mg/kg, 48 hr, IM 20 mg/kg, read-out: Assayed Concentrations of EFdA, Mean): 2.18 ng/mL
concentration at 72 h (intramuscular, 20 mg/kg, 72 hr, IM 20 mg/kg, read-out: Assayed Concentrations of EFdA, Mean): 0.29 ng/mL
concentration at 72 h (intramuscular, 20 mg/kg, 72 hr, IM 20 mg/kg, read-out: Assayed Concentrations of EFdA, individual rats): 0.301 ng/mL
concentration at 6 day (intramuscular, 20 mg/kg, Day 6, IM 20 mg/kg, read-out: Assayed Concentrations of EFdA, Mean): 0.1 ng/mL
concentration at 6 day (intramuscular, 20 mg/kg, Day 6, IM 20 mg/kg, read-out: Assayed Concentrations of EFdA, individual rats): 0.102 ng/mL
concentration at 0.5 h (sc, 20 mg/kg, 0.5 hr, SC 20 mg/kg, read-out: Assayed Concentrations of EFdA, Mean): 1280 ng/mL
concentration at 1 h (sc, 20 mg/kg, 1 hr, SC 20 mg/kg, read-out: Assayed Concentrations of EFdA, Mean): 1430 ng/mL
concentration at 4 h (sc, 20 mg/kg, 4 hr, SC 20 mg/kg, read-out: Assayed Concentrations of EFdA, Mean): 639 ng/mL
concentration at 4 h (sc, 20 mg/kg, 4 hr, SC 20 mg/kg, read-out: Assayed Concentrations of EFdA, individual rats): 534 ng/mL
concentration at 7 h (sc, 20 mg/kg, 7 hr, SC 20 mg/kg, read-out: Assayed Concentrations of EFdA, Mean): 303 ng/mL
concentration at 7 h (sc, 20 mg/kg, 7 hr, SC 20 mg/kg, read-out: Assayed Concentrations of EFdA, individual rats): 320 ng/mL
concentration at 24 h (sc, 20 mg/kg, 24 hr, SC 20 mg/kg, read-out: Assayed Concentrations of EFdA, Mean): 7.98 ng/mL
concentration at 48 h (sc, 20 mg/kg, 48 hr, SC 20 mg/kg, read-out: Assayed Concentrations of EFdA, Mean): 0.68 ng/mL
concentration at 48 h (sc, 20 mg/kg, 48 hr, SC 20 mg/kg, read-out: Assayed Concentrations of EFdA, individual rats): 0.771 ng/mL
concentration at 72 h (sc, 20 mg/kg, 72 hr, SC 20 mg/kg, read-out: Assayed Concentrations of EFdA, Mean): 0.241 ng/mL
concentration at 72 h (sc, 20 mg/kg, 72 hr, SC 20 mg/kg, read-out: Assayed Concentrations of EFdA, individual rats): 0.251 ng/mL
concentration at 6 day (sc, 20 mg/kg, Day 6, SC 20 mg/kg, read-out: Assayed Concentrations of EFdA, Mean): 0.04 ng/mL
concentration at 6 day (sc, 20 mg/kg, Day 6, SC 20 mg/kg, read-out: Assayed Concentrations of EFdA, individual rats): 0.117 ng/mL
concentration at 25 day (sc, 20 mg/kg, Day 25, SC 20 mg/kg, read-out: Assayed Concentrations of EFdA, Mean): 0.221 ng/mL
concentration at 25 day (sc, 20 mg/kg, Day 25, SC 20 mg/kg, read-out: Assayed Concentrations of EFdA, individual rats): 0.221 ng/mL
detectable duration of exposure of EFdA (rat IM and SC administration of 20 mg/kg): less than 8 days
